In the test the target is hERG potassium channels (Homo sapiens, UniProt Q12809). The test is described as follows: hERG channel inhibition, automated patch-clamp in HEK293-hERG stable transfected cell line. Particulars: read-out: IC50 values of blocking effects on hERG potassium currents, whole-cell patch-clamp, tail currents. For orientation: Block of hERG is tested as a sign of cardiac risk.

Structures are written as SMILES.

Sequence of hERG potassium channels (Q12809 whole entry): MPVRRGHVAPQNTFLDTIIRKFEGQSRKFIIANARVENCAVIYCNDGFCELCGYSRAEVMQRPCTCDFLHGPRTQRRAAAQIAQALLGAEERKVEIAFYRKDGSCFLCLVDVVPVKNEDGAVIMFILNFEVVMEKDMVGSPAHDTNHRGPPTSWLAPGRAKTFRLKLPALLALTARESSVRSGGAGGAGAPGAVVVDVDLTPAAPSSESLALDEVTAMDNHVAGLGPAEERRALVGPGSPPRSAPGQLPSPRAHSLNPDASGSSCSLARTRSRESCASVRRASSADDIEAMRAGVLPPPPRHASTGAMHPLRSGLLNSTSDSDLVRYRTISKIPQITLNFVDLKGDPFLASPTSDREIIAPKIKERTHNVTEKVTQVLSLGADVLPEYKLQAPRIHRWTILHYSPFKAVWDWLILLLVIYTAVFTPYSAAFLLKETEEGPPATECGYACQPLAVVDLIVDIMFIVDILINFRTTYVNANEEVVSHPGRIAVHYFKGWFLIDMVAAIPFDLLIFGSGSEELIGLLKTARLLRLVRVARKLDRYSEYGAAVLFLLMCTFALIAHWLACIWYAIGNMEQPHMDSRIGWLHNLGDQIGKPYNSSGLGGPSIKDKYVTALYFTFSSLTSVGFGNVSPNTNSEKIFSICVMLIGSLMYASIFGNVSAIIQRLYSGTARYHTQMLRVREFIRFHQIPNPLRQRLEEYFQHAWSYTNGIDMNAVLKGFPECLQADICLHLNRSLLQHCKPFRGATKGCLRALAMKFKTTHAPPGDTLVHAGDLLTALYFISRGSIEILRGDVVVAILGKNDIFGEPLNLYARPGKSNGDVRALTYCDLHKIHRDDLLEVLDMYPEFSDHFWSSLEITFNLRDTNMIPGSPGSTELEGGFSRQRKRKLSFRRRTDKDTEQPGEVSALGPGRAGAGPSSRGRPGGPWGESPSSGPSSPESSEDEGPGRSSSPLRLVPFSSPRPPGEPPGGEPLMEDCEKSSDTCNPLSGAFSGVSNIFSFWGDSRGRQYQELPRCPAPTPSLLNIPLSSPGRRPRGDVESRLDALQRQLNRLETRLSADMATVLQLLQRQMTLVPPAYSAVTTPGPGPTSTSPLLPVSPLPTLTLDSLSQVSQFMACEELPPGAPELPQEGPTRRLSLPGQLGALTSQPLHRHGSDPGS

Consider `C=C(C)C(=O)NCCOc1c(N)ncnc1-c1cc(F)cc(NC(=O)c2sc3c(c2F)CC2(CC2)C3)c1C` [Example 26-1, N-(3-(6-amino-5-(2-(N-methacrylamido)ethoxy)pyrimidin-4-yl)-5-fluoro-2-methylphenyl)-3-fluoro-4,6-dihydrospiro[cyclopenta[b]thiophene-5,1'-cyclopropane]-2-carboxamide], for which the IC50 (usually the concentration at which inhibition is half-maximal) is 14 µM.
As for `C=C(C)C(=O)NCCOc1c(N)ncnc1-c1cc(F)cc(NC(=O)c2ccc3c(c2F)OC(C)(C)C3)c1C` [Example 4, N-(3-(6-amino-5-(2-(N-methacrylamido)ethoxy)pyrimidin-4-yl)-5-fluoro-2-methylphenyl)-7-fluoro-2,2-dimethyl-2,3-dihydrobenzofuran-6-carboxamide], the concentration for half-maximal inhibition (IC50) is 15.5 µM.

These data come from patent publication EP4782437A1, “HETEROARYL COMPOUND, AND PREPARATION METHOD THEREFOR AND USE THEREOF IN MEDICINE” (Jiangsu Hengrui Pharmaceuticals Co., Ltd., priority 2023, dated 2025).
